Structures can show the parent of a compound that is named as a salt.
Each compound was assayed against recombinant Human Phosphodiesterase B2 (PDE4B2) (Homo sapiens, UniProt Q07343) (assay: Human Phosphodiesterase B2 Radiometric Assay). Settings: 0.1 μg/mL recombinant PDE4B2; preincubated at 30 C for 30 min; [3H]cyclic AMP 8 nM, stopped after 20 min; yttrium silicate SPA beads; read-out: PDE4B2 pIC50 (converted).
Format: biochemical
Method: Human Phosphodiesterase B2 Radiometric Assay
The assay uses recombinant Human Phosphodiesterase B2 (PDE4B2) produced in house (PrAZL0163), stored at −20° C. This assay is based on the observation that 5′AMP, the product of the reaction catalysed by PDE4, binds preferentially to yttrium silicate SPA beads (Amersham Biosciences, UK) compared to the substrate, cAMP. Compounds at the appropriate concentration were preincubated at 30 C for 30 min with an assay buffer containing 50 mM HEPES (pH 7.5), 8.3 mM MgCl2, 1.7 mM EGTA, 0.01% (w/v) Brij®35 and 0.1 μg/mL recombinant PDE4B2. The reaction was started by the addition of [3H]cyclic AMP to give a final concentration of 8 nM, and was stopped 20 min after the addition of the substrate by the addition of yttrium silicate SPA beads containing 18 mM Zn SO4. Bound […] was measured using a Topcount NXT (Packard Bioscience, UK). pIC50 values (presented in Table 2) were determined using Xlfit3 curve fitting, using model 205.

Sequence of recombinant Human Phosphodiesterase B2 (PDE4B2) (Q07343 1-564 isoform Q07343-2): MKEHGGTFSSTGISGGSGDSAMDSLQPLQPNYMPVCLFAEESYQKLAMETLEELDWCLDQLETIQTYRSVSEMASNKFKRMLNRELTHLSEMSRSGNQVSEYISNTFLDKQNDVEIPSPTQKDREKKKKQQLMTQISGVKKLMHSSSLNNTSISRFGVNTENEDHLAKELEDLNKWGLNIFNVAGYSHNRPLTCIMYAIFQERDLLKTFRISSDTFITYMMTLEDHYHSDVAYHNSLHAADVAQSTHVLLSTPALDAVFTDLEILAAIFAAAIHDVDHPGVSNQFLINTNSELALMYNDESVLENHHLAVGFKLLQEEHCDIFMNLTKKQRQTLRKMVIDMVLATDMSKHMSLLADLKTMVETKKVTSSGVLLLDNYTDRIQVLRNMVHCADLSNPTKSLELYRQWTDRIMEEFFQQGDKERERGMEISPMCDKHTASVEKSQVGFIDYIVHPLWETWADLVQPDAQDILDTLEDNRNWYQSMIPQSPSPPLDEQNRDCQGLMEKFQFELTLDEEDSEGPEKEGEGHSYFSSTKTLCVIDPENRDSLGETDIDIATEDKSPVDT

IC50 [nM] | SMILES
0.126 | C[C@@H]1CN(Cc2cc(-c3cccc(Oc4ncc(F)cc4C(=O)N[C@H]4CC[C@@H](NC(=O)c5cc(C(F)(F)F)n(C)n5)CC4)c3)ccc2O)C[C@H](C)N1 [Example 92, 2-(3′-(((3S,5R)-3,5-dimethylpiperazin-1-yl)methyl)-4′-hydroxybiphenyl-3-yloxy)-5-fluoro-N-((1s,4s)-4-(1-methyl-5-(trifluoromethyl)-1H-pyrazole-3-carboxamido)cyclohexyl)nicotinamide]
0.0398 | C[C@@H]1CN(CCc2ccc(-c3cccc(Oc4ncc(F)cc4C(=O)N[C@H]4CC[C@@H](NC(=O)c5cc6n(n5)CCCC6)CC4)c3)cc2)C[C@H](C)N1 [Example 162, N-((1s,4s)-4-(2-(4′-(2-((3S,5R)-3,5-Dimethylpiperazin-1-yl)ethyl)biphenyl-3-yloxy)-5-fluoronicotinamido)cyclohexyl)-4,5,6,7-tetrahydropyrazolo[1,5-a]pyridine-2-carboxamide]
0.0316 | Cc1csc(C(=O)N[C@H]2CC[C@@H](NC(=O)c3cc(F)cnc3Oc3cccc(-c4ccc(CN5C[C@@H](C)N[C@@H](C)C5)cc4CN4CCOC[C@@H]4C)c3)CC2)n1 [Example 194, N-((1s,4s)-4-(2-(4′-(((3S,5R)-3,5-dimethylpiperazin-1-yl)methyl)-2′-(((S)-3-methylmorpholino)methyl)biphenyl-3-yloxy)-5-fluoronicotinamido)cyclohexyl)-4-methylthiazole-2-carboxamide]
0.02 | Cc1cc(C(=O)N[C@H]2CC[C@@H](NC(=O)c3cc(F)cnc3Oc3cccc(-c4ccc(CCN5C[C@@H](C)N[C@@H](C)C5)cc4)c3)CC2)nn1C [Example 82, N-((1s,4s)-4-(1,5-dimethyl-1H-pyrazole-3-carboxamido)cyclohexyl)-2-(4′-(2-((3S,5R)-3,5-dimethylpiperazin-1-yl)ethyl)biphenyl-3-yloxy)-5-fluoronicotinamide]
0.0501 | O=C(N[C@H]1CC[C@@H](NC(=O)c2cc(F)cnc2Oc2cccc(-c3ccc(CCCN4CCNCC4)cc3)c2)CC1)c1cc2n(n1)CCC2 [Example 133, N-((1s,4s)-4-(5-fluoro-2-(4′-(3-(piperazin-1-yl)propyl)biphenyl-3-yloxy)nicotinamido)cyclohexyl)-5,6-dihydro-4H-pyrrolo[1,2-b]pyrazole-2-carboxamide]
0.0398 | O=C(N[C@H]1CC[C@@H](NC(=O)c2cc(F)cnc2Oc2cccc(-c3ccc(CCCN4CCNCC4)cc3)c2)CC1)c1cc(C2CC2)n[nH]1 [Example 173, N-((1s,4s)-4-(3-Cyclopropyl-1H-pyrazole-5-carboxamido)cyclohexyl)-5-fluoro-2-(4′-(3-(piperazin-1-yl)propyl)biphenyl-3-yloxy)nicotinamide]
0.2 | CN(C)CCN(C)Cc1ccc(-c2cccc(Oc3ncc(F)cc3C(=O)N[C@H]3CC[C@@H](NC(=O)c4cc5n(n4)CCCC5)CC3)c2)cc1 [Example 110, N-((1s,4s)-4-(2-(4′-(((2-(dimethylamino)ethyl)(methyl)amino)methyl)biphenyl-3-yloxy)-5-fluoronicotinamido)cyclohexyl)-4,5,6,7-tetrahydropyrazolo[1,5-a]pyridine-2-carboxamide hydrochloride]
3.16 | Cc1cccc(CN[C@H]2CC[C@@H](NC(=O)c3cc(F)cnc3Oc3cccc(-c4ccc(O)cc4CN4CCOCC4)c3)CC2)n1 [Example 6, 5-fluoro-2-(4′-hydroxy-2′-(morpholinomethyl)biphenyl-3-yloxy)-N-((1s,4s)-4-((6-methylpyridin-2-yl)methylamino)cyclohexyl)nicotinamide]
0.02 | CC(C)c1nc(C(=O)N[C@H]2CC[C@@H](NC(=O)c3cc(F)cnc3Oc3cccc(-c4ccc(O)cc4CN4CCOCC4)c3)CC2)cs1 [Example 39, N-((1s,4s)-4-(5-fluoro-2-(4′-hydroxy-2′-(morpholinomethyl)biphenyl-3-yloxy)nicotinamido)cyclohexyl)-2-isopropylthiazole-4-carboxamide]
0.0631 | Cc1nc(C(=O)N[C@H]2CC[C@@H](NC(=O)c3cc(F)cnc3Oc3cccc(-c4ccc(CN5CCNCC5)cc4O)c3)CC2)cs1 [Example 57, N-((1s,4s)-4-(5-fluoro-2-(2′-hydroxy-4′-(piperazin-1-ylmethyl)biphenyl-3-yloxy)nicotinamido)cyclohexyl)-2-methylthiazole-4-carboxamide]
0.0316 | Cc1cccc(C(=O)N[C@H]2CC[C@@H](NC(=O)c3cc(F)cnc3Oc3cccc(-c4ccc(O)cc4CN(C)C)c3)CC2)n1 [Example 10, N-((1s,4s)-4-(2-(2′-((dimethylamino)methyl)-4′-hydroxybiphenyl-3-yloxy)-5-fluoronicotinamido)cyclohexyl)-6-methylpicolinamide]
0.0316 | Cc1csc(C(=O)N[C@H]2CC[C@@H](NC(=O)c3cc(F)cnc3Oc3cccc(-c4ccc(CN5C[C@@H](C)N[C@@H](C)C5)cc4CN4CCOCC4)c3)CC2)n1 [Example 144, N-((1s,4s)-4-(2-(4′-(((3S,5R)-3,5-dimethylpiperazin-1-yl)methyl)-2′-(morpholinomethyl)biphenyl-3-yloxy)-5-fluoronicotinamido)cyclohexyl)-4-methylthiazole-2-carboxamide]
0.0251 | C[C@@H]1CN(Cc2ccc(-c3cccc(Oc4ncc(F)cc4C(=O)N[C@H]4CC[C@@H](NC(=O)c5cc6ccccn6n5)CC4)c3)cc2)C[C@H](C)N1 [Example 71, N-((1s,4s)-4-(2-(4′-(((3S,5R)-3,5-dimethylpiperazin-1-yl)methyl)biphenyl-3-yloxy)-5-fluoronicotinamido)cyclohexyl)pyrazolo[1,5-a]pyridine-2-carboxamide]
0.0631 | Cc1cccc2nc(C(=O)N[C@H]3CC[C@@H](NC(=O)c4cc(F)cnc4Oc4cccc(-c5ccc(O)c(CN6C[C@@H](C)N[C@@H](C)C6)c5)c4)CC3)cn12 [Example 85, N-((1s,4s)-4-(2-(3′-(((3S,5R)-3,5-dimethylpiperazin-1-yl)methyl)-4′-hydroxybiphenyl-3-yloxy)-5-fluoronicotinamido)cyclohexyl)-5-methylimidazo[1,2-a]pyridine-2-carboxamide]
0.0501 | CN(C)Cc1cc(O)ccc1-c1cccc(Oc2ncc(F)cc2C(=O)N[C@H]2CC[C@@H](NC(=O)c3cccc4[nH]cnc34)CC2)c1 [Example 52, N-((1s,4s)-4-(2-(2′-((dimethylamino)methyl)-4′-hydroxybiphenyl-3-yloxy)-5-fluoronicotinamido)cyclohexyl)-1H-benzo[d]imidazole-4-carboxamide]
0.0501 | Cc1cc(C(=O)N[C@H]2CC[C@@H](NC(=O)c3cc(F)cnc3Oc3cccc(-c4cccc(CCCN5C[C@@H](C)N[C@@H](C)C5)c4)c3)CC2)nn1C [Example 126, N-((1s,4s)-4-(1,5-dimethyl-1H-pyrazole-3-carboxamido)cyclohexyl)-2-(3′-(3-((3S,5R)-3,5-dimethylpiperazin-1-yl)propyl)biphenyl-3-yloxy)-5-fluoronicotinamide]
0.0158 | CC(C)NC(=O)CN1CCN(Cc2ccc(-c3cccc(Oc4ncc(F)cc4C(=O)N[C@H]4CC[C@@H](NC(=O)c5cccc6[nH]cnc56)CC4)c3)c(CN3CCOCC3)c2)CC1 [Example 201, N-((1s,4s)-4-(5-fluoro-2-(4′-((4-(2-(isopropylamino)-2-oxoethyl)piperazin-1-yl)methyl)-2′-(morpholinomethyl)biphenyl-3-yloxy)nicotinamido)cyclohexyl)-1H-benzo[d]imidazole-4-carboxamide]
0.2 | Cc1nc(C(=O)N[C@H]2CC[C@@H](NC(=O)c3cc(F)cnc3Oc3cccc(-c4ccc(O)cc4CN(C)C(C)(C)C)c3)CC2)cs1 [Example 26, N-((1s,4s)-4-(2-(2′-((tert-butyl(methyl)amino)methyl)-4′-hydroxybiphenyl-3-yloxy)-5-fluoronicotinamido)cyclohexyl)-2-methylthiazole-4-carboxamide]
0.0316 | C[C@@H]1CN(CCCc2ccc(-c3cccc(Oc4ncc(F)cc4C(=O)N[C@H]4CC[C@@H](NC(=O)c5csc(CO)n5)CC4)c3)cc2)C[C@H](C)N1 [Example 149, N-((1s,4s)-4-(2-(4′-(3-((3S,5R)-3,5-dimethylpiperazin-1-yl)propyl)biphenyl-3-yloxy)-5-fluoronicotinamido)cyclohexyl)-2-(hydroxymethyl)thiazole-4-carboxamide]
0.0398 | Cc1cc(C(=O)N[C@H]2CC[C@@H](NC(=O)c3cc(F)cnc3Oc3cccc(-c4cccc(CCN5CCNCC5)c4)c3)CC2)nn1C [Example 102, N-((1s,4s)-4-(1,5-dimethyl-1H-pyrazole-3-carboxamido)cyclohexyl)-5-fluoro-2-(3′-(2-(piperazin-1-yl)ethyl)biphenyl-3-yloxy)nicotinamide]
0.251 | C[C@@H]1CN(Cc2cc(-c3cccc(Oc4ncc(F)cc4C(=O)N[C@H]4CC[C@@H](NC(=O)c5cn6c(n5)CCCC6)CC4)c3)ccc2O)C[C@H](C)N1 [Example 91, N-((1s,4s)-4-(2-(3′-(((3S,5R)-3,5-dimethylpiperazin-1-yl)methyl)-4′-hydroxybiphenyl-3-yloxy)-5-fluoronicotinamido)cyclohexyl)-5,6,7,8-tetrahydroimidazo[1,2-a]pyridine-2-carboxamide]
0.2 | Cc1cc(C(=O)N[C@H]2CC[C@@H](NC(=O)c3cc(F)cnc3Oc3cccc(-c4ccc(CN5CCN(C(C)C)CC5)cc4CN4CCOCC4)c3)CC2)nn1C [Example 183, N-((1s,4s)-4-(1,5-Dimethyl-1H-pyrazole-3-carboxamido)cyclohexyl)-5-fluoro-2-(4′-((4-isopropylpiperazin-1-yl)methyl)-2′-(morpholinomethyl)biphenyl-3-yloxy)nicotinamide]
